According to ChEMBL document CHEMBL1131359, “Design of new inhibitors for cdc2 kinase based on a multiple pseudosubstrate structure” (Bioorg Med Chem Lett, 1998):
Each block holds one molecule with its values, some of them ahead of it. Calls of active or inactive are those of the source. No cut-off for these calls is given here. Residues, ends and D or L forms follow the SMILES beside them. *: point of attachment. X3 = CN(C)CCCn1cc(C2=C(c3cn(CCOCC*)c4ccccc34)C(=O)NC2=O)c2ccccc21; X4 = O=C1NC(=O)C(c2cn(CCOCCOCCOC*)c3ccccc23)=C1c1c[nH]c2ccccc12; X1 = O=C1NC(=O)C(c2cn(CCOCCOCC*)c3ccccc23)=C1c1c[nH]c2ccccc12; X2 = O=C1NC(=O)C(c2cn(CCOCC*)c3ccccc23)=C1c1c[nH]c2ccccc12

Legend:
[1] = biological target: T1, cAMP-dependent protein kinase (PKA) (Homo sapiens) (UniProt P22694+P17612+P22612); test: Inhibition of protein kinase A at 24 uM (No inhibition); type: protein assay
[2] = Inhibition of Calcium/calmodulin-dependent protein kinase at 24 uM (No inhibition)
[3] = biological target: Cyclin-dependent kinase 1/cyclin B (Homo sapiens, UniProt P06493); test: Inhibitory concentration was determined by measuring phosphorylation of H1 histone using active human Cell division cycle 2-cyclin B complex; type: protein-complex assay
[4] = biological target: T2, Protein kinase C (PKC) (Homo sapiens) (UniProt O94806+P41743+P17252+P05129+Q05655+P05771+Q05513+Q02156+P24723+Q15139+Q04759); test: Inhibition of protein kinase C at 240 uM; type: protein assay
[5] = biological target: T3, Cyclin-dependent kinase 1/cyclin B (Homo sapiens) (UniProt P06493+P14635+Q8WWL7+O95067); test: Inhibition of Cell division cycle 2-cyclin B at 240 uM (Partial inhibition); type: protein-complex assay
[6] = biological target: T3, Cyclin-dependent kinase 1/cyclin B (Homo sapiens); test: Inhibition of Cell division cycle 2-cyclin B at 2.4 uM (No inhibition); type: protein-complex assay
[7] = biological target: T3, Cyclin-dependent kinase 1/cyclin B (Homo sapiens); test: Inhibition of Cell division cycle 2-cyclin B at 24 uM (No inhibition); type: protein-complex assay
[8] = biological target: T2, Protein kinase C (PKC) (Homo sapiens); test: Inhibition of protein kinase C at 2.4 uM; type: protein assay
[9] = biological target: T1, cAMP-dependent protein kinase (PKA) (Homo sapiens); test: Inhibition of protein kinase A at 2.4 uM (No inhibition); type: protein assay
[10] = Inhibition of Calcium/calmodulin-dependent protein kinase at 2.4 uM (No inhibition)
[11] = Inhibition of Calcium/calmodulin-dependent protein kinase at 240 uM (No inhibition)
[12] = biological target: T1, cAMP-dependent protein kinase (PKA) (Homo sapiens); test: Inhibition of protein kinase A at 240 uM (No inhibition); type: protein assay
[13] = biological target: T2, Protein kinase C (PKC) (Homo sapiens); test: Inhibition of protein kinase C at 24 uM; type: protein assay
[14] = biological target: T3, Cyclin-dependent kinase 1/cyclin B (Homo sapiens); settings: 240 uM
[15] = biological target: T1, cAMP-dependent protein kinase (PKA) (Homo sapiens); test: Inhibition of protein kinase A at 240 uM; type: protein assay
[16] = biological target: T3, Cyclin-dependent kinase 1/cyclin B (Homo sapiens); test: Inhibition of Cell division cycle 2-cyclin B at 24 uM (Partial inhibition); type: protein-complex assay
[17] = biological target: T1, cAMP-dependent protein kinase (PKA) (Homo sapiens); test: Inhibition of protein kinase A at 24 uM (partial); type: protein assay
[18] = Inhibition of Calcium/calmodulin-dependent protein kinase at 240 uM (Partial)

SMILES: O=C1NC(=O)C(c2cn(CCOCCOCCOCCO)c3ccccc23)=C1c1c[nH]c2ccccc12
IC50 [3]: 55 µM

SMILES: CNC(=O)[C@H](CCCCN)NC(=O)[C@H](CCCCN)NC(=O)[C@@H]1CCCN1C(=O)[C@H](CS)NC(C)=O (HELM PEPTIDE1{[ac].C.P.K.K.[CN[*:1]]}$$$$V2.0)
IC50 [3]: > 1000 µM

SMILES: CNC(=O)[C@H](CCCCN)NC(=O)[C@H](CCCCN)NC(=O)[C@@H]1CCCN1C(=O)[C@H](CSCCOCCn1cc(C2=C(c3c[nH]c4ccccc34)C(=O)NC2=O)c2ccccc21)NC(C)=O (Ac-C(X2)PKK-NHMe)
IC50 [3]: 98 µM

SMILES: O=C1NC(=O)C(c2cn(CCOCCOCCO)c3ccccc23)=C1c1c[nH]c2ccccc12
IC50 [3]: 285 µM

SMILES: CNC(=O)[C@H](CCCCN)NC(=O)[C@H](CCCCN)NC(=O)[C@@H]1CCCN1C(=O)[C@H](CO)NC(=O)[C@H](CSCCOCCOCCn1cc(C2=C(c3c[nH]c4ccccc34)C(=O)NC2=O)c2ccccc21)NC(C)=O (Ac-C(X1)SPKK-NHMe)
IC50 [3]: 220 µM

SMILES: CN(C)CCCn1cc(C2=C(c3c[nH]c4ccccc34)C(=O)NC2=O)c2ccccc21 [GF-109203]
inhibition [14]: > 75% | inhibition [15]: > 75% | inhibition [2]: inactive | IC50 [3]: 19 µM | inhibition [16]: Weak activity | inhibition [4]: > 75% | inhibition [17]: Weak activity | inhibition [6]: inactive | inhibition [8]: > 75% | inhibition [9]: inactive | inhibition [10]: inactive | inhibition [11]: inactive | inhibition [13]: > 75%

SMILES: CNC(=O)[C@H](CCCCN)NC(=O)[C@H](CCCCN)NC(=O)[C@@H]1CCCN1C(=O)[C@H](CSCCOCCOCCn1cc(C2=C(c3cn(CCCN(C)C)c4ccccc34)C(=O)NC2=O)c2ccccc21)NC(C)=O
IC50 [3]: > 1000 µM

SMILES: CNC(=O)[C@H](CCCCN)NC(=O)[C@H](CCCCN)NC(=O)[C@@H]1CCCN1C(=O)[C@H](CSCCOCCn1cc(C2=C(c3cn(CCCN(C)C)c4ccccc34)C(=O)NC2=O)c2ccccc21)NC(C)=O (Ac-C(X3)PKK-NHMe)
IC50 [3]: > 1000 µM

SMILES: CNC(=O)[C@H](CCCCN)NC(=O)[C@H](CCCCN)NC(=O)[C@@H]1CCCN1C(=O)[C@H](CO)NC(=O)[C@H](CSCOCCOCCOCCn1cc(C2=C(c3c[nH]c4ccccc34)C(=O)NC2=O)c2ccccc21)NC(C)=O (Ac-C(X4)SPKK-NHMe)
IC50 [3]: 570 µM

The remaining molecules from weak to strong by IC50 [3], led by results:

IC50 [3]: 35 µM
SMILES: CN(C)CCCn1cc(C2=C(c3cn(CCOCCOCCO)c4ccccc34)C(=O)NC2=O)c2ccccc21

IC50 [3]: 31 µM
SMILES: CNC(=O)[C@H](CCCCN)NC(=O)[C@H](CCCCN)NC(=O)[C@@H]1CCCN1C(=O)[C@H](CSCCOCCOCCOCCn1cc(C2=C(c3c[nH]c4ccccc34)C(=O)NC2=O)c2ccccc21)NC(C)=O

IC50 [3]: 22 µM
SMILES: CN(C)CCCn1cc(C2=C(c3cn(CCOCCO)c4ccccc34)C(=O)NC2=O)c2ccccc21

inhibition [14]: > 75% | inhibition [15]: > 75% | inhibition [18]: Weak activity | inhibition [2]: inactive | IC50 [3]: 18 µM | inhibition [16]: Weak activity | inhibition [17]: Weak activity | inhibition [6]: inactive | inhibition [9]: inactive | inhibition [10]: inactive
SMILES: O=C1NC(=O)C(c2c[nH]c3ccccc23)=C1c1c[nH]c2ccccc12 [RO-316233]

inhibition [1]: inactive | inhibition [2]: inactive | IC50 [3]: 4.5 µM | inhibition [4]: > 75% | inhibition [5]: Weak activity | inhibition [6]: inactive | inhibition [7]: inactive | inhibition [8]: > 75% | inhibition [9]: inactive | inhibition [10]: inactive | inhibition [11]: inactive | inhibition [12]: inactive | inhibition [13]: > 75%
SMILES: CNC(=O)[C@H](CCCCN)NC(=O)[C@H](CCCCN)NC(=O)[C@@H]1CCCN1C(=O)[C@H](CSCCOCCOCCn1cc(C2=C(c3c[nH]c4ccccc34)C(=O)NC2=O)c2ccccc21)NC(C)=O (Ac-C(X1)PKK-NHMe)

inhibition [15]: > 75% | inhibition [1]: inactive | inhibition [2]: inactive | IC50 [3]: 4 µM | inhibition [4]: > 75% | inhibition [5]: Weak activity | inhibition [6]: inactive | inhibition [7]: inactive | inhibition [8]: > 75% | inhibition [9]: inactive | inhibition [10]: inactive | inhibition [11]: inactive | inhibition [13]: > 75%
SMILES: O=C1NC(=O)C(c2cn(CCOCCO)c3ccccc23)=C1c1c[nH]c2ccccc12
